Columns and labels:
[1] = radiolabelled, injected into human volunteers, within 5 hours; cited from earlier work
[2] = tested on: guinea pig uterus; experiment: Oxytocic activity on isolated guinea pig uterus (height of contraction compared with standard oxytocin or PGF2α); type: cell-based; conditions: at the concentration of 200 µg/ml

Structure (SMILES)	radioactivity excreted in the urine [1]	potency compared with the standards (in words) [2]
CCCCC[C@H](O)/C=C/[C@H]1[C@H](O)CC(=O)[C@@H]1C/C=C\CCCC(=O)O [PGE2]	about 50%	
CC(C)(O)CC[C@@H](O)[C@](C)(O)[C@H]1CC[C@@]2(O)C3=CC(=O)[C@@H]4C[C@@H](O)CC[C@]4(C)[C@H]3CC[C@]12C [2-deoxy ecdysterone]		more potent than the standard oxytocin and PGF2α
CCCCC[C@H](O)/C=C/[C@@H]1[C@@H](C/C=C\CCCC(=O)O)[C@@H](O)C[C@H]1O [PGF2α]	around 90%	

From patent EP1240898A2, “Use of 2-deoxy ecdysterone for the preparation of a medicament for inducing labour or abortion” (Council of Scientific and Industrial Research, priority 2000, dated 2001)
